# Data: US20120083508A1, “ALPHA-2B RECEPTOR AGONIST AND ANTICONVULSANT COMPOSITIONS FOR TREATING CHRONIC PAIN” (ALLERGAN, INC., priority 2006, published 2012)
# How the values were obtained:
# [1] = tested on: Chung rat model of chronic pain; assay: Chung rat model of chronic pain (allodynia reversal); assay type: in vivo; settings: for PAIN REVERSAL: Compound No. 27 10 μg/kg given immediately after Gabapentin 10 mg/kg, rats; for pain relief when administered alone at the dose used in the combination: intraperitoneally, doses of Table 4 (No. 95 1 μg/kg, No. 27 10 μg/kg)
# [2] = tested on: Chung rat model of chronic pain; assay: as above; assay type: in vivo; settings: for PAIN REVERSAL: rats
# Method: Gabapentin was administered intraperitoneally to rats at a minimally effective dose; that is, the compound was administered at a dose that, when administered alone, is the minimum dose required to relieve pain (this dose was calculated by finding, first, the dose that produced drug's maximum effect—that is, the dose that fully alleviated pain—and dividing that dose by three; the result is a dose that is slightly less than 50% of the dose that is required to produce the drug's maximum effect). The rats then immediately received one of two alpha-2B receptor agonists, Compound No. 95 and Compound No. 27, or received no additional compound, at all. […] Pain reversal was then assessed using the Chung rat model of chronic pain. The model is described by Kim and Chung, Pain, […], at 355-363 (1992) and in U.S. Pat. No. 7,091,232, both of which are incorporated by reference herein.
# The right-hand column in Table 5 provides the P values showing statistical significance comparing the effect of the alpha-2B receptor agonist+Gabapentin to the effect of Gabapentin alone. The significance was determined using a 2-sided unpaired Student t test.
# (§1) A minimal effect is typically <50% reversal of allodynia. Optimal effects are typically >80% reversal of allodynia. Gabapentin by itself is not fully effective so its peak effect is about 62% reversal of allodynia. An ineffective intraperitoneal (IP) Gabapentin dose is 3 mg/kg. A minimally effective dose is 10 mg/kg and its peak effect is achieved with 30 mg/kg. […] Locomotor activity is determined automatically by placing the rat in a digicom analyzer chamber (Omnitech Electronic). These chambers have photocells criss-crossing the box that are broken as the animal moves around. The computer analyses this movement and records total activity over 5-minute time periods.
# locomotor activity = assay: Locomotor / exploratory activity in a novel chamber (digicom analyzer); assay type: in vivo, rat
# Method: as §1
# [3] = IP 1 ug/kg + Gabapentin 10 mg/kg
compound,measurement,setting,value
NCC1(CC(=O)O)CCCCC1 [Gabapentin],"peak effect, reversal of allodynia","[1]; Gabapentin by itself, IP, peak effect achieved with 30 mg/kg",about 62%
same,% Allodynia Reversal (30 min peak),"[1]; IP, 1 mg/kg, alone",5.89 ± 1.3%
same,dose at which peak effect is achieved,"[1]; IP, alone",30 mg/kg
same,ineffective intraperitoneal (IP) dose,"[1]; IP, alone",3 mg/kg
same,minimally effective dose,"[1]; IP, alone, minimal effect is <50% reversal of allodynia",10 mg/kg
same,PAIN REVERSAL,"[2]; Gabapentin 10 mg/kg intraperitoneally, alone",45%
same,PAIN REVERSAL,"[2]; Gabapentin 10 mg/kg intraperitoneally, alone, listed as gabapentin",45%
same,% Allodynia Reversal (30 min peak),"[2]; IP, 10 mg/kg, alone",40.8 ± 9.3%
same,% Allodynia Reversal (30 min peak),"[2]; IP, 30 mg/kg, alone",61.56 ± 5.7%
same,sedative effects (locomotor activity),locomotor activity; 100 mg/kg,significantly reduced locomotor activity
same,reduction in exploratory activity compared to vehicle treated rats,"locomotor activity; 100 mg/kg intraperitoneally 15 minutes before novel chamber, between 40-60 minutes after dosing",> 50%
C1=NC(CC2CCc3ccccc3C2)CN1 (stereo not drawn) [Compound 27],PAIN REVERSAL,[1],78%
same,PAIN REVERSAL,[1]; listed as Compound No. 27,78%
same,% Allodynia Reversal (30 min peak),[1]; IP 10 ug/kg + Gabapentin 10 mg/kg,77.50 ± 4.7%
same,% Allodynia Reversal (30 min peak),"[1]; IP, 10 ug/kg, alone",43.75 ± 7.4%
same,% Allodynia Reversal (30 min peak),"[1]; IP, 30 ug/kg, alone",74.59 ± 7.4%
same,% Allodynia Reversal (30 min peak),"[1]; IP, 100 ug/kg, alone",90.86 ± 5.9%
same,pain relief when administered alone at the dose used in the combination,[1]; alone,not effective in relieving pain
OCCNC(=S)NCc1cccc(Cl)c1F [Compound 131],% Allodynia Reversal (30 min peak),"[1]; IP, 1 ug/kg, alone",3.92 ± 1.8%
same,% Allodynia Reversal (30 min peak),"[1]; IP, 3 ug/kg, alone",54.67 ± 6.1%
same,% Allodynia Reversal (30 min peak),"[1]; IP, 10 ug/kg, alone",85.24 ± 6.0%
same,% Allodynia Reversal (30 min peak),"[1]; IP, 30 ug/kg, alone",90.04 ± 6.1%
same,% Allodynia Reversal (30 min peak),"[1]; IP, 100 ug/kg, alone",95.31 ± 4.7%
same,% Allodynia Reversal (30 min peak),"[1]; IP, 300 ug/kg, alone",91.7 ± 5.3%
same,% Allodynia Reversal (30 min peak),[2]; [3],88.00 ± 5.4%
C[C@@H](c1c[nH]c(=S)[nH]1)c1cccc2ncccc12 [Compound 95],% Allodynia Reversal (30 min peak),[1]; [3],75.46 ± 5.3%
same,% Allodynia Reversal (30 min peak),"[1]; PO, 1 ug/kg, alone",1.52 ± 1.0%
same,% Allodynia Reversal (30 min peak),"[1]; PO, 3 ug/kg, alone",58.21 ± 5.3%
same,% Allodynia Reversal (30 min peak),"[1]; PO, 10 ug/kg, alone",78.43 ± 4.6%
same,% Allodynia Reversal (30 min peak),"[1]; PO, 30 ug/kg, alone",81.53 ± 6.2%
same,% Allodynia Reversal (30 min peak),"[1]; PO, 100 ug/kg, alone",81.26 ± 8.8%
same,pain relief when administered alone at the dose used in the combination,[1]; alone,not effective in relieving pain
same,PAIN REVERSAL,[2]; Compound No. 95 1 μg/kg given immediately after Gabapentin 10 mg/kg,75%
